Experimental data: patent US20140127827A1, “METHOD FOR DETECTION OF ANTIGEN USING FLUORESCENCE RESONANCE ENERGY TRANSFER IMMUNOASSAY” (priority 2012, published 2014)

Columns and labels:
Format in all cases: binding
anti-ZEN antibody = experiment: FRET immunoassay using an intact antibody (ZEN/anti-ZEN conjugate); settings: 0, 10, 100 ng/mL; 25 mM MEST pH 6.0; excitation 280 nm
Procedure: (§1) Using 25 mM MEST buffer solution (containing 0.3% Tween 20 in MES buffer solution, pH 6.0), mycotoxins of various concentrations (0 ng/mL, 10 ng/mL and 100 ng/mL) were reacted with antibodies having a constant concentration at room temperature for 20 minutes to obtain mycotoxin/antibody conjugates (AFB1/anti-AFB1 conjugate, OTA/anti-OTA conjugate, and ZEN/anti-ZEN conjugate). The obtained mycotoxin/antibody conjugates were excited at 280 nm to obtain fluorescence spectra (FIG. 4). Referring to FIG. 4, it can be seen that, as the concentration of mycotoxins (AFB1, OTA and ZEN) increases, the fluorescence intensity at a wavelength of 350 nm decreases.

anti-NPT = experiment: FRET immunoassay for neopterin using antibodies (NPT/anti-NPT conjugate), incl. specificity to BPT; settings: 10 mM NaHCO3 pH 9.0
Procedure: Under the condition of 10 mM NaHCO3 buffer solution (pH 9.0), NPT of various concentrations (0 ng/mL, 0.2 ng/mL, 2 ng/mL and 20 ng/mL) was reacted with antibodies having a constant concentration at room temperature for 20 minutes to obtain NPT/anti-NPT conjugates. The obtained NPT/anti-NPT conjugates were excited at 280 nm to obtain fluorescence spectra (FIG. 14). Referring to FIG. 14, it can be seen that, as the concentration of NPT increases, the fluorescence intensity at a wavelength of 350 nm decreases.
Under the condition of 10 mM NaHCO3 buffer solution (pH 9.0), specificity of mouse IgG antibody (anti-Mouse IgG), IFN-γ antibody (anti-IFN-γ) and CRP antibody (anti-CRP) to 2 ng/mL and 20 ng/mL of NPT was investigated using FRET immunoassay. […] Further, specificity of anti-NPT with BPT having the same concentration as NPT was investigated.

anti-BaP = experiment: FRET immunoassay for benzopyrene using antibodies (BaP/anti-BaP conjugate), incl. specificity to pyrene and DBA; settings: same concentration as BaP (5 and 20 ng/mL), 10 mM NaHCO3 pH 9.0
Procedure: Under the condition of 10 mM NaHCO3 buffer solution (pH 9.0), BaPs having various concentrations (0, 0.1, 0.2, 0.5, 1, 2, 5, 10, 20 and 50 ng/mL) were reacted with antibodies having constant concentration at room temperature for 20 minutes to obtain BaP/anti-BaP conjugates. The obtained BaP/anti-BaP conjugates were excited at 280 nm to obtain a fluorescence spectrum (FIG. 18). Referring to FIGS. 18 and 19, it can be seen that, as the concentration of BaP increases, fluorescence intensity at a wavelength of 350 nm decreases, while fluorescence intensity at 435 nm increases at the same time.
Under the condition of 10 mM NaHCO3 buffer solution (pH 9.0), specificity of mouse IgG antibody (anti-Mouse IgG) to 5 ng/mL and 20 ng/mL BaP was investigated using FRET immunoassay. […] Further, specificity of anti-BaP to pyrene and dibenz[a,h]anthracene (DBA) having the same concentration as BaP was investigated.

anti-OTA antibody = experiment: FRET immunoassay using an intact antibody (OTA/anti-OTA conjugate); settings: 0, 10, 100 ng/mL; 25 mM MEST pH 6.0; excitation 280 nm
Procedure: as §1

anti-AFB1 Fab = experiment: FRET immunoassay using Fab fragment (anti-AFB1 Fab), incl. specificity to OTA
Procedure: Under the condition of 25 mM MEST buffer solution (pH 6.0), AFB1 of various concentrations (0, 0.1, 0.2, 0.5, 1, 2, 10, 20, 50 and 100 ng/mL) was reacted with anti-AFB1 Fab fragments having a constant concentration at room temperature for 20 minutes to obtain AFB1/anti-AFB1 Fab conjugates. The obtained AFB1/anti-AFB1 Fab conjugates were excited at 280 nm to obtain fluorescence spectra (FIG. 7). Referring to FIG. 7, it can be seen that, as the concentration of AFB1 increases, the fluorescence intensity at a wavelength of 350 nm decreases. Particularly, it can also be seen that sensitivity of FRET immunoassay using Fab fragments was much better than that of FRET immunoassay using an intact antibody of Example 1 (FIG. 8). Further, as a result of analysis by lowering the concentration of AFB1, it can be seen that approximately up to 0.09 ng/mL of AFB1 could be detected through FRET immunoassay using Fab fragments. This corresponds to a near 10-fold improvement in terms of sensitivity as compared to FRET immunoassay where an intact antibody of Example 1 was used. […]

anti-AFB1 antibody = settings: pH 6

`C[C@H]1CCCC(=O)CCC/C=C/c2cc(O)cc(O)c2C(=O)O1` [ZEN, zearalenone] was tested, and the “fluorescence intensity at 350 nm as concentration increases” value (anti-ZEN antibody) was “decreases”.

`Nc1nc2ncc([C@H](O)[C@H](O)CO)nc2c(=O)[nH]1` [NPT, neopterin] was tested, and the “fluorescence intensity at 350 nm as concentration increases” value (anti-NPT; 0, 0.2, 2, 20 ng/mL NPT, excitation 280 nm) was “decreases”.

`c1cc2ccc3cccc4ccc(c1)c2c34` [pyrene] was tested, and the “binding to anti-BaP (specificity)” value (anti-BaP) was “a little antigen/antibody binding”.

biopterin [BPT] was tested, and the “binding to anti-NPT (specificity)” value (anti-NPT; BPT at same concentration as NPT (2 and 20 ng/mL)) was “no antigen/antibody binding”.

In the case of `c1ccc2c(c1)ccc1cc3c(ccc4ccccc43)cc12` [DBA, dibenz[a,h]anthracene], the “binding to anti-BaP (specificity)” value (anti-BaP) is reported as “a little antigen/antibody binding”.

For `C[C@@H]1Cc2c(Cl)cc(C(=O)N[C@@H](Cc3ccccc3)C(=O)O)c(O)c2C(=O)O1` [OTA, ochratoxin A], the “fluorescence intensity at 350 nm as concentration increases” value (anti-OTA antibody) was “decreases” and the “binding to anti-AFB1 Fab (specificity)” value (anti-AFB1 Fab; OTA at same concentration as AFB1 (10 and 50 ng/mL), MEST buffer pH 6.0) was “no antigen/antibody binding”.

For `COc1cc2c(c3oc(=O)c4c(c13)CCC4=O)[C@@H]1C=CO[C@@H]1O2` [AFB1, aflatoxin], the “fluorescence intensity at 350 nm as concentration increases” value (anti-AFB1 antibody) was “decreases” and the “fluorescence intensity at 350 nm as concentration increases” value (anti-AFB1 Fab; pH 6) was “decreases”.
